Source: patent US9174974B2, “Macrocyclic factor VIIa inhibitors” (BRISTOL-MYERS SQUIBB COMPANY, priority 2012, dated 2015)
pKi: −log10 of the molar value. Like-named read-outs stand apart in the source and are kept apart here.

Columns and labels:
human FVIIa = human FVIIa (Homo sapiens (Human), UniProt P08709); assay: FVIIa Ki (37° C.), FVIIa-Xase assay; format: biochemical; conditions: for Ki: read-out: FVIIa Ki, nM 37° C.; for Ki(HK1)/Ki(FVIIa): selectivity ratio, tissue kallikrein (HK1) vs FVIIa
human FVIIa, sequence (P08709 61-212): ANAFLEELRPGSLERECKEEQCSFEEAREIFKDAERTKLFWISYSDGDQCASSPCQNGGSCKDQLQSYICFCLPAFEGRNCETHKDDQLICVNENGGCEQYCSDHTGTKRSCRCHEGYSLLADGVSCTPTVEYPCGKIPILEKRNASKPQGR
human FVIIa, sequence (P08709 213-466): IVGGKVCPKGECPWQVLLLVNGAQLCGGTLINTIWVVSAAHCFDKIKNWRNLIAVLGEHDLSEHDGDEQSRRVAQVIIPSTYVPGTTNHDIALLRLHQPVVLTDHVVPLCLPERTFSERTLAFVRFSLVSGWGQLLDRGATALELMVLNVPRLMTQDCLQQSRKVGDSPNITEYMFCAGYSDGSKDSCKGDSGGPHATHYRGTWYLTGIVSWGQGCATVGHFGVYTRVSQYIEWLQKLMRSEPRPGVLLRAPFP
human FVIIa, sequence (P13726 33-295 partner): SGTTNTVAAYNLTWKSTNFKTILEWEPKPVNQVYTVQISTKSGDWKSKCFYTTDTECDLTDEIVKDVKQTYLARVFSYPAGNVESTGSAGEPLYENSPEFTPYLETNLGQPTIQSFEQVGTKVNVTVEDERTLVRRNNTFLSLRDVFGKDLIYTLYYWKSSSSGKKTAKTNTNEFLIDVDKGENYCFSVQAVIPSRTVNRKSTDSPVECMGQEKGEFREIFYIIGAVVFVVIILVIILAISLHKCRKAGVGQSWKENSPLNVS

tissue kallikrein (HK1) = tissue kallikrein (HK1) (Homo sapiens (Human), UniProt P06870); assay: Tissue kallikrein-1 (HK1) Ki, fluorogenic substrate assay; format: biochemical; conditions: 37° C.
tissue kallikrein (HK1), sequence (P06870 25-262): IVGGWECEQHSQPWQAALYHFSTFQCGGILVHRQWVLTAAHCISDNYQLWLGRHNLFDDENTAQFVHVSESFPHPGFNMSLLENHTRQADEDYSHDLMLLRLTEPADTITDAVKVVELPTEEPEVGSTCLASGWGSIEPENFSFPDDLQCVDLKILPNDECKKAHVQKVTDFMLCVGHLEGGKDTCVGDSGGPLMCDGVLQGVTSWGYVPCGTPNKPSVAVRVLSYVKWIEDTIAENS

| Compound | Ki (human FVIIa) [nM] | Ki(HK1)/Ki(FVIIa) (human FVIIa) | pKi (tissue kallikrein (HK1)) | pKi (human FVIIa) |
| --- | --- | --- | --- | --- |
| Cc1cc2ccc1[C@@H](C)COC(=O)Nc1ccc(S(=O)(=O)C(C)C)c(c1)CN(C)C(=O)[C@@H]2Nc1ccc2c(N)ncc(F)c2c1.O=C(O)C(F)(F)F [Example 8, (2R,15R)-2-[(1-Amino-4-fluoroisoquinolin-6-yl)amino]-4,15,17-trimethyl-7-(propane-2-sulfonyl)-13-oxa-4,11-diazatricyclo[14.2.2.1^6,10]henicosa-1(18),6,8,10 (21),16,19-hexaene-3,12-dione; trifluoroacetic acid] | 1.2 | 583 | 6.15 | – |
| Cc1cc2ccc1[C@@H](C)COC(=O)Nc1cc(F)c(OCC3(C#N)CC3)c(c1)CN(C)C(=O)[C@@H]2Nc1ccc2c(N)nccc2c1.O=C(O)C(F)(F)F [Example 18, 1-({[(2R,15R)-2-[(1-Aminoisoquinolin-6-yl)amino]-8-fluoro-4,15,20-trimethyl-3,12-dioxo-13-oxa-4,11-diazatricyclo[14.2.2.1^6,10]henicosa-1(18),6,8,10 (21),16,19-hexaen-7-yl]oxy}methyl)cyclopropane-1-carbonitrile; trifluoroacetic acid] | – | 1114 | 6.31 | 9.36 |
| Cc1cc2ccc1[C@@H](C)COC(=O)Nc1cc(F)c(O[C@@H]3CCOC3)c(c1)CN(C)C(=O)[C@@H]2Nc1ccc2c(N)nccc2c1.O=C(O)C(F)(F)F [Example 38, (2R,15R)-2-[(1-Aminoisoquinolin-6-yl)amino]-8-fluoro-4,15,20-trimethyl-7-[(3R)-oxolan-3-yloxy]-13-oxa-4,11-diazatricyclo[14.2.2.1^6,10]henicosa-1(18),6,8,10 (21),16,19-hexaene-3,12-dione; trifluoroacetic acid] | 0.05 | 5800 | 6.54 | – |
| CC[C@@H](C(=O)O)c1ccc2cc1CN(C)C(=O)[C@H](Nc1ccc3c(N)ncc(F)c3c1)c1ccc(c(C)c1)[C@@H](C)COC(=O)N2.O=C(O)C(F)(F)F [Example 13, (2R)-2-[(2R,15R)-2-[(1-Amino-4-fluoroisoquinolin-6-yl)amino]-4,15,17-trimethyl-3,12-dioxo-13-oxa-4,11-diazatricyclo[14.2.2.1^6,10]henicosa-1(18),6,8,10 (21),16,19-hexaen-7-yl]butanoic acid; trifluoroacetic acid] | 0.61 | 623 | 6.42 | – |
| Cc1cc2ccc1[C@@H](C)COC(=O)Nc1cc(F)c(S(=O)(=O)C3CC3)c(c1)CN(C)C(=O)[C@@H]2Nc1cc2ccnc(N)c2cc1F.O=C(O)C(F)(F)F [Example 29, (2R,15R)-2-[(1-Amino-7-fluoroisoquinolin-6-yl)amino]-7-(cyclopropanesulfonyl)-8-fluoro-4,15,17-trimethyl-13-oxa-4,11-diazatricyclo[14.2.2.1^6,10]henicosa-1(18),6,8,10 (21),16,19-hexaene-3,12-dione; trifluoroacetic acid] | 0.17 | 4412 | 6.12 | – |
| CCN(Cc1nccs1)C(=O)c1ccc2cc1CN(C)C(=O)[C@H](Nc1ccc3c(N)nccc3c1)c1ccc(c(C)c1)[C@@H](C)COC(=O)N2.O=C(O)C(F)(F)F [Example 23, (2R,15R)-2-[(1-Aminoisoquinolin-6-yl)amino]-N-ethyl-4,15,17-trimethyl-3,12-dioxo-N-(1,3-thiazol-2-ylmethyl)-13-oxa-4,11-diazatricyclo[14.2.2.1^6,10]henicosa-1(18),6,8,10 (21),16,19-hexaene-7-carboxamide; trifluoroacetic acid] | 0.3 | 1100 | 6.48 | – |
| COC[C@H](C)S(=O)(=O)c1ccc2cc1CN(C)C(=O)[C@H](Nc1ccc3c(N)ncc(F)c3c1)c1ccc(c(C)c1)[C@@H](C)COC(=O)N2.O=C(O)C(F)(F)F [Example 6, (2R,15R)-2-[(1-Amino-4-fluoroisoquinolin-6-yl)amino]-7-[(2S)-1-methoxypropane-2-sulfonyl]-4,15,17-trimethyl-13-oxa-4,11-diazatricyclo[14.2.2.1^6,10]henicosa-1(18),6,8,10 (21),16,19-hexaene-3,12-dione; trifluoroacetic acid] | 1.8 | 306 | 6.26 | – |
| CCN(Cc1nccs1)C(=O)c1ccc2cc1CN(C)C(=O)[C@H](Nc1ccc3c(N)nccc3c1)c1cc(C)c(c(C)c1)C(F)(F)COC(=O)N2.O=C(O)C(F)(F)F [Example 4, (2R)-2-[(1-Aminoisoquinolin-6-yl)amino]-N-ethyl-15,15-difluoro-4,17,20-trimethyl-3,12-dioxo-N-(1,3-thiazol-2-ylmethyl)-13-oxa-4,11-diazatricyclo[14.2.2.1^6,10]henicosa-1(18),6,8,10 (21),16,19-hexaene-7-carboxamide; trifluoroacetic acid] | – | – | 6.52 | – |
| C[C@H]1COC(=O)Nc2cccc(c2)CNC(=O)C(Nc2ccc3c(N)nccc3c2)c2ccc1cc2 (stereo partly drawn) [Comparator 4, reference compound] | > 140 | – | – | – |

The next lines start with the values.

| Ki (human FVIIa) [nM] | Ki(HK1)/Ki(FVIIa) (human FVIIa) | pKi (tissue kallikrein (HK1)) | pKi (human FVIIa) | Compound |
| --- | --- | --- | --- | --- |
| 0.12 | 1917 | 6.64 | – | Cc1cc2ccc1[C@@H](C)COC(=O)Nc1ccc(C3(c4nnn[nH]4)CC3)c(c1)CN(C)C(=O)[C@@H]2Nc1ccc2c(N)nccc2c1.O=C(O)C(F)(F)F [Example 36, (2R,15R)-2-[(1-Aminoisoquinolin-6-yl)amino]-4,15,20-trimethyl-7-[1-(1H-1,2,3,4-tetrazol-5-yl)cyclopropyl]-13-oxa-4,11-diazatricyclo[14.2.2.1^6,10]henicosa-1(18),6,8,10 (21),16,19-hexaene-3,12-dione; trifluoroacetic acid] |
| 0.25 | 1080 | 6.57 | – | COc1cc2c(F)cc1[C@@H](C)COC(=O)Nc1ccc(S(=O)(=O)C3CC3)c(c1)CN(C)C(=O)[C@@H]2Nc1cc2ccnc(N)c2cc1F.O=C(O)C(F)(F)F [Example 25, (2R,15R)-2-[(1-Amino-7-fluoroisoquinolin-6-yl)amino]-7-(cyclopropanesulfonyl)-18-fluoro-20-methoxy-4,15-dimethyl-13-oxa-4,11-diazatricyclo[14.2.2.1^6,10]henicosa-1(18),6,8,10 (21),16,19-hexaene-3,12-dione; trifluoroacetic acid] |
| 11 | 10 | 6.96 | – | CCS(=O)(=O)c1ccc2cc1CNC(=O)[C@H](Nc1ccc3c(N)nccc3c1)c1ccc(cc1)CCOC(=O)N2 [Comparator 2, reference compound] |
| – | – | 6.70 | – | Cc1cc2ccc1[C@@H](CF)COC(=O)Nc1ccc(S(=O)(=O)C3CC3)c(c1)CN(C)C(=O)[C@@H]2Nc1ccc2c(N)nccc2c1.O=C(O)C(F)(F)F [Example 24, (2R,15R)-2-[(1-Aminoisoquinolin-6-yl)amino]-7-(cyclopropanesulfonyl)-15-(fluoromethyl)-4,17-dimethyl-13-oxa-4,11-diazatricyclo[14.2.2.1^6,10]henicosa-1(18),6,8,10 (21),16,19-hexaene-3,12-dione; trifluoroacetic acid] |
| 1.1 | 64 | 7.15 | – | CCS(=O)(=O)c1ccc2cc1CNC(=O)[C@H](Nc1ccc3c(N)nccc3c1)c1cc(C)c(c(C)c1)CCOC(=O)N2 [Comparator 3, reference compound] |
